Tests used:
Assay type in all cases: in vivo
Phakopsora pachyrhizi [1] = assay: Test Example 5: test of effect on Phakopsora pachyrhizi on soybean, foliar spray; settings: soybean (Natto shoryu), inoculated 14 days after spraying, lesion area of first trifoliate
Method: (§1) Based on the lesion areas in the treated plot and the non-treated plot, the effect of the treated plot was calculated according to the following formula (I). The results are shown in [Table 1]. Effect(%)=(1−(lesion area in treated plot)/(lesion area in non-treated plot))×100 formula (1)
(§2) Test of Effect on Phakopsora pachyrhizi
(§3) A plastic pot was stuffed with a soil, soybean (variety; Natto shoryu) was sown on this, and allowed to grow in a greenhouse until unfolding of the unifoliate. The present carboxamide compounds (2) and (3) and racemic N-(1,1,3-trimethylindan-4-yl)-1-methyl-3-difluoromethylpyrazole-4-carboxamide (hereinafter, referred to as racemic compound (B)) and racemic N-(1,1,3-trimethylindan-4-yl)-1,3,5-trimethylpyrazole-4-carboxamide (hereinafter, referred to as racemic compound (C)) were prepared into formulations according to Formulation Example 6, then, the formulations were diluted with water to attain a prescribed concentration, and sprayed to foliar part so as to satisfactorily adhere to the leaf surfaces of the soybean. The soybean was further cultivated at room temperature for 14 days, and grown until unfolding of the first trifoliate. The plant was inoculated with an aqueous suspension of Phakopsora pachyrhizi spores by spraying. After inoculation, the plant was allowed to stand under humid condition at 23° C. overnight, further, allowed to stand for 7 days at room temperature, then, the lesion area of the first trifoliate was checked.
Based on the lesion areas in the treated plot and the non-treated plot, the effect of the treated plot was calculated according to the above-described formula (I). The results are shown in [Table 2].

[2] = tested on: Mycosphaerella graminicola (Septoria tritici); assay: Test of effect of preventing Mycosphaerella graminicola (Septoria tritici) on wheat, foliar spray; settings: 50 ppm foliar spray; wheat (Apogee); inoculated two days after spraying
Method: The control effect was evaluated by visually observing the area of a lesion on a test plant in investigation, and comparing the area of a lesion on a plant treated with a test composition and the area of a lesion on a non-treated plant.
Test of Effect of Preventing Mycosphaerella graminicola (Septoria tritici)
A plastic pot was stuffed with a soil, wheat (variety; Apogee) was sown on this, and allowed to grow in a greenhouse for 10 days. […] After spraying, the plant was air-dried, and two days after, inoculated with an aqueous suspension of Septoria tritici spores by spraying. After inoculation, the plant was first allowed to stand under humid condition at 18° C. for 3 days, further, allowed to stand for 14 to 18 days under illumination, then, the lesion area was checked. As a result, the lesion on the plant treated with the present carboxamide compounds (1), (2) and (3) was 10% or less of the lesion area on a non-treated plant.
The same test was carried out excepting the application concentration, using racemic N-(1,1,3-trimethylindan-4-yl)-1-methyl-3-trifluoromethylpyrazole-4-carboxylic amide (hereinafter, referred to as racemic compound (A)) instead of the present carboxamide compound. As a result, the lesion area on the plant treated with 50 ppm of the racemic compound (A) was 75% or more of the lesion area on a non-treated plant.

Phakopsora pachyrhizi [3] = assay: Test Example 4: test of effect on Phakopsora pachyrhizi on soybean, foliar spray; settings: 50 ppm; soybean (Natto shoryu); inoculated 14 days after spraying; lesion area of first trifoliate
Method: as §2
as §3, with “carboxamide” for “carboxamide compounds (2) and (3) and racemic N-(1,1,3-trimethylindan-4-yl)-1-methyl-3-difluoromethylpyrazole-4-carboxamide (hereinafter, referred to as racemic”, “compound (1) was” for “compound (B)) and racemic N-(1,1,3-trimethylindan-4-yl)-1,3,5-trimethylpyrazole-4-carboxamide (hereinafter, referred to as racemic compound (C)) were”, “cultivated in greenhouse” for “cultivated at room temperature”, “first trifolidate.” for “first trifoliate.”
as §1

SMILES: CC1CC(C)(C)c2cccc(NC(=O)c3cn(C)nc3C(F)F)c21 (racemic) [Racemic compound (B), N-(1,1,3-trimethylindan-4-yl)-1-methyl-3-difluoromethylpyrazole-4-carboxamide, reference compound]
- Effect [%] (Phakopsora pachyrhizi [1]; 200 ppm): 46.7%

SMILES: Cc1nn(C)c(C)c1C(=O)Nc1cccc2c1C(C)CC2(C)C (racemic) [Racemic compound (C), N-(1,1,3-trimethylindan-4-yl)-1,3,5-trimethylpyrazole-4-carboxamide, reference compound]
- Effect [%] (Phakopsora pachyrhizi [1]; 200 ppm): 76.5%

SMILES: CC1CC(C)(C)c2cccc(NC(=O)c3cn(C)nc3C(F)(F)F)c21 (racemic) [racemic compound (A), N-(1,1,3-trimethylindan-4-yl)-1-methyl-3-trifluoromethylpyrazole-4-carboxylic amide]
- lesion area on treated plant relative to lesion area on a non-treated plant [2]: ≥ 75%

SMILES: C[C@@H]1CC(C)(C)c2cccc(NC(=O)c3cn(C)nc3C(F)(F)F)c21 [present carboxamide compound (1), (R)-(−)-N-(1,1,3-trimethylindan-4-yl)-1-methyl-3-trifluoromethylpyrazole-4-carboxamide]
- Effect [%] (Phakopsora pachyrhizi [3]): 98.1%

SMILES: C[C@@H]1CC(C)(C)c2cccc(NC(=O)c3cn(C)nc3C(F)F)c21 [present carboxamide compound (2), (R)-(−)-N-(1,1,3-trimethylindan-4-yl)-1-methyl-3-difluoromethylpyrazole-4-carboxamide]
- Effect [%] (Phakopsora pachyrhizi [1]; 100 ppm): 77.1%
- Effect [%] (Phakopsora pachyrhizi [1]; 200 ppm): 100%

SMILES: Cc1nn(C)c(C)c1C(=O)Nc1cccc2c1[C@H](C)CC2(C)C [present carboxamide compound (3), (R)-(−)-N-(1,1,3-trimethylindan-4-yl)-1,3,5-trimethylpyrazole-4-carboxamide]
- Effect [%] (Phakopsora pachyrhizi [1]; 100 ppm): 98.4%
- Effect [%] (Phakopsora pachyrhizi [1]; 200 ppm): 100%
